Reference: US8247429B2, “Tricyclic compound and pharmaceutical use thereof” (Takeda Pharmaceutical Company Limited, priority 2006, dated 2012)

How the values were obtained:
[1] = molecular target: T1, human melatonin 1 receptors (human MT1 receptors) (Homo sapiens, UniProt P48039); test: Melatonin receptor binding inhibitory test (2-[125I] Iodomelatonin), MT1; details: membrane fraction of CHO-hMelR7 cells, 25° C. for 2.5 hr
T1 construct: expressed in transfected cells; membrane fraction used
Method: (§1) Melatonin receptor binding inhibitory test
(1) Preparation of CHO-hMelR7 Cells Expressing Human Melatonin 1 Receptors
A cDNA fragment (SEQ ID NO: 1) encoding full-length of human melatonin 1 receptors (human MT1 receptors) was incorporated into expression vector pAKKO-111H (former name pAKKO1.11H; Biochim Biophys Acta. Vol. 1219(2), pp. 251-259, 1994) to give plasmid pAKKO-hMelR7 for animal cell expression. CHO/dhfr-cells (ATCC, #CRL-9096) were plated at a concentration of 0.3×10^6 cells/dish in a 6 cm culture dish (Becton Dickinson), and cultured under the conditions of 37° C., 5% CO2 for 48 hr. The cells were transfected with pAKKO-hMelR7 plasmid DNA (5 μg) using Cellphect Transfection Kit (Amersham, #27-9268-01). The transfected cells were cultured in Dulbecco's modified Eagle medium (DMEM) (Sigma, #D6046) containing 10% dialyzed FBS (Biowest, #S180D), 1× Non-Essential Amino Acid (Invitrogen, #11140-050) and 50 μg/mL Gentamycin (Invitrogen, #15750-060), and the cell line that stably expressed the plasmid gene was selected. By a receptor binding assay using 2-[^125I] Iodomelatonin, CHO-hMelR7 cell line showing specific binding of 2-[^125I] Iodomelatonin was selected from the obtained clones.
(§2) (3) Preparation of Cellular Membrane Fraction of CHO Cell (CHO-hMelR7 and CHO-hMT2) Stably Expressing Human MT1 and MT2 Receptors
(§3) CHO-hMelR7 and CHO-hMT2 cells were plated using Cellfactory (Nunc, #170009) under the conditions of 1×10^8 cells/2000 mL/flask. The cells were grown to confluent, and recovered by the following method. As the medium for CHO-hMelR7 and CHO-hMT2, MEM α containing 10% FBS and penicillin/streptomycin was used. […] of geneticin was added to the medium for CHO-hMT2.
(§4) The medium was discarded, cells were washed twice with 200 mL of EDTA/PBS(−), 200 mL of EDTA/PBS(−) was further added, and the cells were stood still at room temperature for 20 min until they were released. The cells were recovered in four 50 mL tubes (Becton Dickinson, #352070), and centrifuged at 1,500 rpm for 10 min at 4° C. using a low speed cooling centrifuge (Hitachi, CF7D2). The supernatant was discarded, the pellets in the four tubes were suspended in 10 mL of PBS(−), and combined in one tube (Becton Dickinson, #352070). The mixture was further centrifuged at 1,500 rpm for 10 min at 4° C., and the obtained pellets were suspended in 20 mL of ice-cooled homogenizing buffer [10 mM NaHCO3, 5 mM EDTA, Protease inhibitor Complete (Roche), pH 7.4]. The cell suspension was homogenized 3 times using a polytron homogenizer at 20,000 rpm for 30 sec. The obtained homogenate was centrifuged (2,000 rpm, 10 min, 4° C.) using a low speed cooling centrifuge. The supernatant was recovered in an ultracentrifugation tube and ultracentrifuged (40,000 rpm, 60 min, 4° C.) using an ultracentrifuge (Beckman, L-90K). To the obtained pellets was added a suspending buffer [50 mM Tris-HCl, 1 mM EDTA, Protease inhibitor Complete (Roche), pH 7.4], and the pellets were suspended by pipetting. The protein concentration of this suspension was measured, diluted to 2 mg/mL to give cellular membrane fractions of CHO-hMelR7 and CHO-hMT2 cells. The membrane fractions were dispensed to 1.5 mL tubes (Eppendorf, #0030120.086) by 100 μL, preserved in a freezer (−80° C.) and used for a binding assay. Protein was quantified using BCA protein assay kit (Pierce) with BSA as the standard.
(§5) (4) Preparation of Membrane Fraction Suspension
(§6) Immediately before use, the membrane fractions of CHO-hMelR7 and CHO-hMT2 cells of the above-mentioned (3) were diluted 20-fold with assay buffer (50 mM Tris-HCl, pH 7.7).
(§7) (5) Preparation of 2-[^125I] Iodomelatonin Solution
(§8) 2-[^125I] Iodomelatonin (#NEX236, PerkinElmer) was diluted with the assay buffer to 400 pM for MT1 and 1 nM for MT2.
(§9) The assay buffer (80 μL) of the above-mentioned (4) was added to each well of a 96-well plate (type 3363, Corning). […]

[2] = molecular target: T2, human melatonin 2 receptors (human MT2 receptors) (Homo sapiens, UniProt P49286); test: Melatonin receptor binding inhibitory test (2-[125I] Iodomelatonin), MT2; details: membrane fraction of CHO-hMT2 cells, 25° C. for 2.5 hr
T2 construct: expressed in transfected cells; membrane fraction used
T2 sequence (P49286 1-362): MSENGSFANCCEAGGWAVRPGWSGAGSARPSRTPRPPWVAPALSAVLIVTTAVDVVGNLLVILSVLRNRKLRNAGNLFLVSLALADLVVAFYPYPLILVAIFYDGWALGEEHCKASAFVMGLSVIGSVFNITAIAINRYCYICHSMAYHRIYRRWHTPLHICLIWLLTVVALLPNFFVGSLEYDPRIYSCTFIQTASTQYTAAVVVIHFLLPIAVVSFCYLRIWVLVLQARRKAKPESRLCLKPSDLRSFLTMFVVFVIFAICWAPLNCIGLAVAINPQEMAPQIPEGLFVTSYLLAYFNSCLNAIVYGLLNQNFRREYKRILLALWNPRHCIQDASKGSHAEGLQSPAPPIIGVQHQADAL
Method: as §1
(2) Preparation of CHO-hMT2 Cells Expressing Human Melatonin 2 Receptors
A cDNA fragment (SEQ ID NO: 2) encoding full-length of human melatonin 2 receptors (human MT2 receptors) was incorporated into expression vector pCMV-Script (Stratagene, #212220) to give the plasmid that was pCMV-human MT2 receptors expression vector for animal cell expression. CHO-K1 cells (ATCC, #CCL-61) were plated at the concentration of 1.5×10^5 cells/cm^2 in a 6 well plate (ASAHI TECHNO GLASS), and cultured under the conditions of 37° C., 5% CO2 for 24 hr. For gene transfection, solution obtained by blending pCMV-human MT2 receptors expression vector (1.9 μg), Lipofectamine Transfection Reagent (Invitrogen, #18324-012) (11.3 μL) and Minimum Essential Medium Eagle (MEM) medium (Sigma, M8042) (93.8 μL), and reacting at room temperature for 20 min was added to the cells per one well. The transfected cells were cultured in MEM medium containing 10% FBS (Life Technology) and 300 μg/mL Geneticin (GIBCO, #10131), and the cell line that stably expressed the plasmid gene was selected. By a receptor binding assay using 2-[^125I] Iodomelatonin, CHO-hMT2 cell line showing specific binding of 2-[^125I] Iodomelatonin was selected from the obtained clones.
as §2, §3, §4, §5, §6, §7, §8, §9

T1 sequence (P48039 whole entry): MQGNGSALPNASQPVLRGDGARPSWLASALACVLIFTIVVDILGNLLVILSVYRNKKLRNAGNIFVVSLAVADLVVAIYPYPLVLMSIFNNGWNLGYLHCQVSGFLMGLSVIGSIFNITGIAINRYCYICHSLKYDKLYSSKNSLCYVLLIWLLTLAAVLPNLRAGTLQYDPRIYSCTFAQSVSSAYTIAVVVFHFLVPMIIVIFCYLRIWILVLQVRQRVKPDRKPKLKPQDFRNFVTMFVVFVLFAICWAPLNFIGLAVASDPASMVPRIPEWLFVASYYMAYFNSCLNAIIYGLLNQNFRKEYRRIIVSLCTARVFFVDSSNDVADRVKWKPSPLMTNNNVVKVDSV

SMILES	IC50 [1]	melting point	IC50 [2]
CC(=O)NCCC1CCc2c(F)cc3nn(C)cc3c21 (stereo not drawn) [Example 28, N-[2-(5-fluoro-2-methyl-2,6,7,8-tetrahydrocyclopenta[e]indazol-8-yl)ethyl]acetamide]	≤ 100 nM	116 to 119 °C	≤ 100 nM
CCC(=O)NCCC1CCc2c(F)cc3nn(C)cc3c21 (stereo not drawn) [Example 29, N-[2-(5-fluoro-2-methyl-2,6,7,8-tetrahydrocyclopenta[e]indazol-8-yl)ethyl]propanamide]	≤ 100 nM	117 to 119 °C	≤ 100 nM
Cc1cc2c3c(ccn2n1)CCC3CCNC(=O)C1CC1 (stereo not drawn) [Example 33, N-[2-(2-methyl-8,9-dihydro-7H-cyclopenta[c]pyrazolo[1,5-a]pyridin-9-yl)ethyl]cyclopropanecarboxamide]	≤ 100 nM	112 to 113 °C	≤ 100 nM

Further lines, results first:

IC50 [1]	melting point	IC50 [2]	SMILES
≤ 100 nM	177 to 178 °C	≤ 100 nM	CC(=O)NCC=C1CCc2c(Cl)cc3nn(C)cc3c21 [Example 30, N-[2-(5-chloro-2-methyl-6,7-dihydrocyclopenta[e]indazol-8(2H)-ylidene)ethyl]acetamide]
≤ 100 nM	143 to 144 °C	≤ 100 nM	CC(=O)NCCC1CCc2c(Cl)cc3nn(C)cc3c21 (stereo not drawn) [Example 31, N-[2-(5-chloro-2-methyl-2,6,7,8-tetrahydrocyclopenta[e]indazol-8-yl)ethyl]acetamide]
